Reference: patent US5776957A, “Nornicotine enantiomers for use as a treatment for dopamine related conditions and disease states” (The University of Kentucky Research Foundation, priority 1996, dated 1998)
“Also recorded” adds a separate entry of the source.

What was measured:
[1] = NIC and metabolites in rat brain after s.c. injection of radiolabelled NIC; type: in vivo
Excerpt: NIC metabolism studies involving HPLRC analysis invariably utilize NIC with a radiolabel (i.e., [^3 H], [^14 C] or [^11 C]) incorporated in the methyl group. However N-demethylated NIC metabolites (norNIC and norCOT) cannot be detected after injection of such radionuclides, since the label is lost in the formation of these metabolites. NIC and four NIC metabolites have recently been detected in rat brain 4 hr after s.c. injection of [2'-^14 C]NIC (FIG. 3, Table I). Three of these metabolites have been identified as COT, norNIC and norCOT. A fourth minor metabolite (Peak B) has not been completely identified but appears to be an N-demethylated metabolite, since it is not detected in the [^3 H-N-methyl]NIC studies.
COT, and therefore, is unlikely to originate from COT N-demethylation. 3-HydroxyCOT and its glucuronide conjugate were not detected as metabolites of either NIC or COT in brain, even though these are major biotransformation products in the periphery (Crooks, 1993).
It appears that NIC metabolites which accumulate with a time course that correlates with the development of behavioral sensitization to NIC have a role in eliciting sensitization to NIC. The inventors have detected NIC, COT, norNIC and norCOT in brain 4 hr following acute s.c. injection of (±)[2'-^14 C]NIC. S(-) [^3 H] -N-methyl]NIC is unsuitable for studying brain metabolism of NIC, since nor-metabolites (i.e., demethylated metabolites) cannot be detected due to [^3 H]-loss during metabolism (Crooks et al., 1995b, AP 7). Thus, commercially available (±)[2'-^14 C]NIC was used to determine NIC metabolites present in brain. This form of radiolabelled NIC provides a metabolically stable [^14 C]-label which allows measurement of all potential NIC metabolites.
A second "metabolite" (Peak A, FIG. 2) was also detected at each time point and most likely results from a combination of metabolic cleavage of the N-methyl group and dissociated-[^3 H], i e, Peak A represents an oxidized 1-carbon unit and indicates the extent of NIC N-demethylation. Note, in our subsequent studies with [2'-^14 C]NIC, Peak A was not observed, which is consistent with our interpretation of the results (Table 1).

[2] = Locomotor activity assay, acute and repeated treatment, S(-) nicotine challenge, saline challenge; type: in vivo, rat; details: for behavioral sensitization after repeated administration: 8 injections once every 48 hrs, nicotine 1 mg/kg, R(+) 0.3-10 mg/kg; for conditioned response to repeated administration (saline challenge): 48 hrs after S(-) nicotine challenge; for cross-sensitization to S(-) nicotine: repeated S(-) nornicotine
Description: (I mg/kg), norNIC (0.3-10 mg/kg) or R(+) norNIC (0.3-10 mg/kg) was administered peripherally (s.c., 8 injections once every 48 hrs) to groups of rats and locomotor activity was assessed for 50 min immediately after each injection.
In the present study, S(-) nicotine (1 mg/kg), R(+) nornicotine (1-10 mg/kg), S(-) nornicotine (1-10 mg/kg), or vehicle (saline) were administered s.c. to groups of rats (n=6) acutely or repeatedly (8 injections once every 48 hrs). Locomotor activity was measured during 50 min sessions immediately following drug or vehicle administration.
Male Sprague-Hawley rats (225-250 g) from Harlan Laboratories were housed two per cage with free access to food and water.
Activity was recorded automatically in a wooden test-chamber measuring 30×28×43 cm high. The chamber had white walls and a wire mesh floor over pine chip bedding. Two photobeams located 4.5 cm above the floor divided the chamber into four equal quadrants. Electromechanical equipment located in an adjacent room recorded photobeam interruptions automatically. A white noise generator provided an ambient 70 dB background noise in the test room in order to minimize extraneous sounds that might influence the animal's behavior in the test chamber. Rats were habituated to the chamber for 50 min on each of three consecutive days.
On the day immediately after the third habituation session, rats were randomly divided into groups (n=6/group) and were administered s.c. either S(-) nicotine (1 mg/kg), R(+) nornicotine (0.3, 1, 3 and 10 mg/kg), or vehicle (saline) to determine acute drug effects on locomotor activity. In a separate experiment, rats (n=6/group) were administered s.c. either S(-) nicotine (1 mg/kg), S(-) nornicotine (0.3, 1, 3 and 10 mg/kg), or vehicle (saline). To determine the effect of repeated drug administration on locomotor activity, drug or vehicle was administered respectively in the test-room once every 48 hrs for a total of 8 injections. After each injection, locomotor activity was recorded during a 50 min session (five 10-min blocks). On the ninth injection day (48 hrs following injection 8), each group of rats was administered a challenge dose (1 mg/kg) of S(-) nicotine in the test-room, and locomotor activity was determined immediately thereafter. On the tenth injection day, each group of rats was administered saline and locomotor activity recorded to determine potential conditioning effects of the repeated drug administration.
Post hoc analysis of pairwise comparisons was performed with Duncan's New Multiple Range test.

[3] = system: [3H]DA-preloaded rat striatal slices (nicotinic receptors); details: cited from earlier work
[4] = cited from earlier work
[5] = drug self-administration paradigm; details: rats
[6] = acute S(-) nornicotine 1 and 3 mg/kg
[7] = repeated S(-) nornicotine 3 mg/kg

CN1CCC[C@H]1c1cccnc1 [S(-) nicotine]
level in CNS at 4 hrs post-NIC-injection ([1]; 4 hrs): only low levels were detected
Tmax ([1]; in vivo, rat brain, read-out: time of maximum uptake in brain): 30 to 60 min
behavioral sensitization after repeated administration ([2]; S(-) nornicotine 10 mg/kg): robust behavioral sensitization
conditioned response to repeated administration (saline challenge) [2]: did not contribute to the observed behavioral sensitization
cumulated locomotor activity after saline challenge ([2]; R(+) experiment, S(-) nicotine 1 mg/kg group): 485 ± 41 number of photobeam interruptions/50 min session
cumulated locomotor activity after saline challenge ([2]; S(-) experiment, S(-) nicotine 1 mg/kg group): 429 ± 34 number of photobeam interruptions/50 min session
locomotor activity time course ([2]; acute S(-) nicotine 1 mg/kg, 20-40 min): did not alter activity
locomotor activity time course ([2]; acute S(-) nicotine 1 mg/kg, first 10 min): significantly decreased activity
locomotor activity time course ([2]; acute S(-) nicotine 1 mg/kg, last 10 min): significantly increased locomotor activity
cumulated locomotor activity vs saline-control ([2]; acute, S(-) nicotine 1 mg/kg): not different from the saline-control group; also recorded: did not alter
cumulated locomotor activity after S(-) nicotine challenge ([2]; repeated S(-) nicotine group vs saline-control): significantly increased
time course after S(-) nicotine challenge ([2]; repeated S(-) nicotine, first 20 min (R(+) experiment) vs saline-control): significantly increased
time course after S(-) nicotine challenge ([2]; repeated S(-) nicotine, first 30 min (S(-) experiment)): significantly greater
locomotor activity time course ([2]; repeated S(-) nicotine, majority of time course): significant increase in activity
cumulated locomotor activity vs saline-control ([2]; repeated, S(-) nicotine 1 mg/kg, 8 injections): significantly increased locomotor activity
plateau concentration of concentration-response curve ([3]; Izenwasser et al. (1991), 10-min exposure): 0.1 µM
EC50 ([3]; rat striatal slices, Sacaan et al. (1995), read-out: EC50 for NIC-evoked [3H]overflow): 3.7 µM
cross-sensitization between nicotine and amphetamine [4]: has not been observed
self-administration / substitution for amphetamine [5]: responding was established and maintained

c1cncc([C@@H]2CCCN2)c1 [S(-) nornicotine, S-(-) nornicotine]
presence as metabolite in brain ([1]; rat brain, after s.c. radiolabelled NIC): present in significant amounts in brain
behavioral sensitization after repeated administration ([2]; S(-) nornicotine 10 mg/kg): produces behavioral sensitization; also recorded: behavioral sensitization following repeated administration of the high dose of S(-) nornicotine was observed
behavioral sensitization after repeated administration ([2]; S(-) nornicotine 10 mg/kg, listed as S-(-)- norNIC): produces behavioral sensitization
conditioned response to repeated administration (saline challenge) [2]: did not contribute to the observed behavioral sensitization
cumulated locomotor activity after saline challenge ([2]; S(-) experiment, 0.3 mg/kg): 352 ± 17 number of photobeam interruptions/50 min session
cumulated locomotor activity after saline challenge ([2]; S(-) experiment, 1.0 mg/kg): 333 ± 38 number of photobeam interruptions/50 min session
cumulated locomotor activity after saline challenge ([2]; S(-) experiment, 3.0 mg/kg): 394 ± 50 number of photobeam interruptions/50 min session
cumulated locomotor activity after saline challenge ([2]; S(-) experiment, 10 mg/kg): 459 ± 26 number of photobeam interruptions/50 min session
locomotor activity after the seventh injection ([2]; S(-) nornicotine 10 mg/kg, repeated): 364±32 photobeam interruptions
cumulated locomotor activity vs saline-control ([2]; acute S(-) nornicotine 0.3 mg/kg): significantly increased
locomotor activity time course ([2]; acute S(-) nornicotine 0.3 mg/kg, first 20 min): significant increase in activity
cumulated locomotor activity vs saline-control ([2]; acute S(-) nornicotine 10 mg/kg): significant decrease in activity
locomotor activity time course ([2]; acute S(-) nornicotine 10 mg/kg, first 10 min): decreased during the first 10 min of the session
cumulated locomotor activity vs saline-control [2, 6]: not different from the saline-control group
locomotor activity time course [2, 6]: not different from the saline-control group
cumulated locomotor activity vs saline-control ([2]; acute, 0.3 and 10 mg/kg, R(+) experiment): significant decrease in locomotor activity
cumulated locomotor activity vs saline-control ([2]; acute, 1 and 3 mg/kg, R(+) experiment): not different from control
locomotor activity, first 10 min ([2]; acute, S(-) nornicotine 3 mg/kg): 121±14 photobeam interruptions
cross-sensitization to S(-) nicotine [2]: cross-sensitization to S(-) nicotine was observed
tolerance to acute stimulatory effect ([2]; repeated S(-) nornicotine 0.3 mg/kg): tolerance to the acute stimulatory effect
locomotor activity, first 10 min [2, 7]: 101±12 photobeam interruptions
locomotor activity, first 10 min after S(-) nicotine challenge [2, 7]: 134±21 photobeam interruptions
tolerance to depressant effect [2, 7]: tolerance did not develop
tolerance to depressant effect ([2]; repeated S(-) nornicotine 10 mg/kg): also observed; also recorded: tolerance developed
time course after S(-) nicotine challenge ([2]; repeated S(-) nornicotine 10 mg/kg, 10-min and 30-min time points): stimulated significantly
locomotor activity time course ([2]; repeated S(-) nornicotine 10 mg/kg, 20-40 min): significantly greater than that of the saline-control group
locomotor activity vs saline-control ([2]; repeated S(-) nornicotine 10 mg/kg, last administration): stimulated significantly above that of the saline-control group
locomotor activity time course ([2]; repeated S(-) nornicotine 0.3-3 mg/kg): not different from the saline-control group
time course after S(-) nicotine challenge ([2]; repeated S(-) nornicotine 0.3 and 1 mg/kg): not different from that of the saline-control group
cumulated locomotor activity after S(-) nicotine challenge ([2]; repeated S(-) nornicotine 0.3 and 1.0 mg/kg): no effect
locomotor activity vs saline-control ([2]; repeated S(-) nornicotine 1 and 3 mg/kg): not different from that of the saline-control group
cumulated locomotor activity after S(-) nicotine challenge ([2]; repeated S(-) nornicotine 3 and 10 mg/kg): significantly stimulated locomotor activity
cross-sensitization to S(-) nicotine ([2]; listed as norNIC): cross-sensitization was observed
antagonist sensitivity of effects ([3]; Teng et al., 1996): inhibited by mecamylamine and DHβE
potency relative to nicotine ([4]; behavioral sensitization): less potent than nicotine
self-administration / substitution for amphetamine ([5]; listed as S-(-)-nornicotine): self-administered; also recorded: substitutes for amphetamine self administration
self-administration / substitution for amphetamine ([5]; listed as norNIC): reinforcing
